Assay results as given in patent publication US8937167B2 (Washington University, priority 2009, dated 2015).
Where “and” joins values, the source holds several entries; their conditions need not be identical. Equal entries are not always repeated.

What was measured:
[1] = tested on: UTI89; test: Chronic cystitis mouse model, bladder titers after oral mannoside treatment; type: in vivo, E. coli (UPEC); host C3H/HeN mouse; settings: PO 50 mg/kg, 6 hours posttreatment, relative to PBS
Description: Mice were infected with the uropathogenic E. coli (UPEC) strain UTI89. Animals that established chronic infection were treated at day 12 post infection with 5 doses of 50 mg/kg of Mannoside 8 administered 8 h apart (mice treated with PBS in the same way were included as controls). Mice were sacrificed 48 h post initial dose and bladder titers were enumerated.
In order to determine the therapeutic potential of 6 for treating chronic UTIs, a unique preclinical murine model was adopted. In humans, the ultimate outcome of UPEC infection of the urinary tract ranges from asymptomatic bacteriuria to acute self-limiting infection to chronic/recurrent UTI. Similarly, the outcome of UTI in C3H/HeN mice ranges from self-limiting to long-lasting, chronic cystitis characterized by persistent, high titer bacteriuria (>10^4 colony forming units (CFU)/ml), high titer bacterial bladder burdens at sacrifice >2 weeks post-infection (wpi), chronic inflammation, and urothelial necrosis. […] Thus, C3H/HeN mice were infected with 1×10^7 CFU of UTI89 and mice developing chronic cystitis, as determined by persistent urine titers of […] through 2 weeks post infection (wpi), were PO treated at 2 wpi with 6 at a single dose of 100 or 50 mg/kg to evaluate the ability of mannoside to treat UTI. 6 hours post-treatment bacterial counts in the bladder were enumerated. […]

[2] = target: FimH (Escherichia coli, UniProt Q1R2J4);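 also: hemagglutination inhibition of guinea pig erythrocytes agglutinated by type 1 piliated uropathogenic E. coli via FimH mannose binding, quantified through serial dilutions of compound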

CNC(=O)c1cc(C(=O)NC)cc(-c2ccc(O[C@H]3O[C@H](CO)[C@@H](O)[C@H](O)[C@@H]3O)c(C(F)(F)F)c2)c1 [Compound 10, N1,N3-dimethyl-5-[3-(trifluoromethyl)-4-[(2R,3S,4S,5S,6R)-3,4,5-trihydroxy-6-(hydroxymethyl)tetrahydropyran-2-yl]oxy-phenyl]benzene-1,3-dicarboxamide]
reduction in bladder bacterial counts [1]: 4 log and 3 log | fold more potent in vitro ([2]; 10 relative to 8, Examples 25-29 numbering): 8 fold | HAI ([2]; Examples 25-29 numbering): 8 nM | fold improvement (HAI) ([2]; over butyl-α-D-mannoside): 15,000 fold | fold better (HAI) ([2]; than lead 6, Examples 25-29 numbering): 50 fold
